Source: patent US20180066005A1, “TRANS-RESVERATROL POLYSACCHARIDE, METHOD OF PRODUCING THE SAME, AND COMPOSITION COMPRISING THE SAME” (FAITH CO., LTD., priority 2013, published 2018)

How the values were obtained:
[1] = Solubility in water at room temperature; format: physicochemical; conditions: for solubility in distilled water: allowed to stand at room temperature, turbid or transparent tube (FIG. 7)
Description: FIG. 7 is a photographic image showing trans-resveratrol-3-O-β-D-monoglucoside contained in the fraction showing a single peak detected in FIG. 1 (A), and trans-resveratrol-3-O-β-D-diglucoside contained in the fraction (a) in FIG. 1 (B), after they were dissolved in distilled water and allowed to stand at room temperature.

3T3 mouse fibroblasts = assay: Rescue activity from cell death induced by hydrogen peroxide; format: cell-based; conditions: 10 μM for 3 hours, then hydrogen peroxide 15 μM, culture for 12 hours (FIG. 10)
Description: Subsequently, the cultured cells were fixed with 4% paraformaldehyde and stained with Hoechst. Cells in which aggregation in the cell nucleus was observed were determined to be cell death, and the percentage of cell death (vertical axis in the graph) was calculated.
An experiment was conducted to confirm the trans-resveratrol polysaccharide's rescue activity from cell death. RSV, 4M-RSV, and 3P-RSV were each added to a culture medium of 3T3 mouse fibroblasts so that the final concentration was 10 μM, and the fibroblasts were cultured with 5% carbon dioxide at 37° C. for 3 hours. Subsequently, hydrogen peroxide was added to the culture medium so that the final concentration was 15 μM, thereby inducing cell death.
After culture for 12 hours, cell death was determined in the same manner as in Example 1, and the percentage of cell death was calculated.

[2] = tested on: normal human three-dimensional epithelial tissue model MelanoDerm; assay: Whitening effect: reduction in black areas in epithelial tissue models (MelanoDerm); format: cell-based
Description: An experiment was conducted to confirm the effect of suppressing the expression of NFκB, which is a transcription factor that induces inflammation. Epithelial tissue models were produced using a normal human three-dimensional epithelial tissue model production kit MelanoDerm (MEL-300; Kurabo). RSV was added to the culture media so that the final concentration was 0 μM (Ctrl), 30 μM, 50 μM, and 100 μM, and the tissue models were cultured according to the manual of the kit. RNA in the skin tissue models was collected three weeks after the addition of RSV, and subjected to quantitative PCR analysis to measure the expression level of NFκB. […] Epithelial tissue models were produced using the above kit. RSV was added to the culture media so that the final concentration was 0 μM (Ctrl), 30 μM, 50 μM, and 100 μM, and the tissue models were cultured according to the manual of the kit. Photographic images of the epithelial tissue models were taken three weeks after the addition of RSV. The degree of reduction in black areas due to the addition of RSV was calculated using ImageJ image-analysis software, and the results were graphed. […] Epithelial tissue models were produced in the same manner as in Example 5. RSV, 4 M-RSV, and 3P-RSV were each added so that the final concentration was 50 μM, and the skin tissue models were observed.

NFκB = assay: Suppression of NFκB expression in epithelial tissue models (quantitative PCR); format: cell-based, human; conditions: 30 μM, 50 μM and 100 μM, three weeks after addition (FIG. 11)
Description: An experiment was conducted to confirm the effect of suppressing the expression of NFκB, which is a transcription factor that induces inflammation. Epithelial tissue models were produced using a normal human three-dimensional epithelial tissue model production kit MelanoDerm (MEL-300; Kurabo). RSV was added to the culture media so that the final concentration was 0 μM (Ctrl), 30 μM, 50 μM, and 100 μM, and the tissue models were cultured according to the manual of the kit. RNA in the skin tissue models was collected three weeks after the addition of RSV, and subjected to quantitative PCR analysis to measure the expression level of NFκB.

Q: For OC[C@H]1O[C@@H](Oc2cc(O)cc(/C=C/c3ccc(O)cc3)c2)[C@H](O)[C@@H](O)[C@@H]1O [trans-resveratrol-3-O-β-D-monoglucoside, trans-Resveratrol-3-O-β-D-glucopyranoside, reference compound], which “solubility in distilled water” value [1] is on record?
A: The value was “not dissolved in distilled water at room temperature”.

Q: For OCC1OC(Oc2cc(O)cc(/C=C/c3ccc(OC4OC(CO)C(OC5OC(CO)C(O)C(O)C5O)C(O)C4O)cc3)c2)C(O)C(O)C1O [4M-RSV, trans-resveratrol-O-β-D-3-monoglucoside-4′-diglycoside], which “rescue activity from cell death induced by hydrogen peroxide (percentage of cell death)” value (3T3 mouse fibroblasts) is on record?
A: The value was “cell death almost equal to that of the case in which hydrogen peroxide was not added (Ctrl)”.

Q: What about the “degree of reduction in black areas per molecular unit of RSV (whitening effect)” value ([2]; 50 μM (FIG. 13)) of the same molecule?
A: Its value is “significantly excellent whitening effect”.

Q: With Oc1ccc(/C=C/c2cc(O)cc(O)c2)cc1 [RSV, Trans-resveratrol] as the molecule, how does the “expression level of NFκB” value (NFκB) read?
A: Its value is “suppressed the expression level of NFκB in the epithelial tissue models in a concentration-dependent manner”.

Q: And the “reduction in black areas (whitening effect)” value ([2]; 30 μM, 50 μM and 100 μM, three weeks after addition, ImageJ (FIG. 12))?
A: The value was “reduced black areas in the epithelial tissue models in a concentration-dependent manner”.

Q: For OCC1OC(OC2C(CO)OC(Oc3cc(O)cc(/C=C/c4ccc(O)cc4)c3)C(O)C2O)C(O)C(O)C1O [trans-resveratrol-3-O-β-D-diglucoside, trans-Resveratrol-3-O-β-D-diglucoside], which “solubility in distilled water” value [1] is on record?
A: Its value is “easily dissolved in distilled water at room temperature”.

Q: And the “water solubility at ordinary temperature” value ([1]; ordinary temperature, concluded from ethyl acetate/water partition and HPLC fractions)?
A: Its value is “could acquire water solubility at ordinary temperature”.
